Experimental findings from patent US20260265220A1, “GALPHA12 INHIBITORS AND METHODS USING SAME” (RUTGERS, THE STATE UNIVERSITY OF NEW JERSEY, priority 2022, published 2026) are described below.

Test [1] deals with T1, PRAK(h)/MAPKAPK5 (Homo sapiens, UniProt Q8IW41).
T1 construct: purchased Eurofins
T1 sequence (Q8IW41 1-473): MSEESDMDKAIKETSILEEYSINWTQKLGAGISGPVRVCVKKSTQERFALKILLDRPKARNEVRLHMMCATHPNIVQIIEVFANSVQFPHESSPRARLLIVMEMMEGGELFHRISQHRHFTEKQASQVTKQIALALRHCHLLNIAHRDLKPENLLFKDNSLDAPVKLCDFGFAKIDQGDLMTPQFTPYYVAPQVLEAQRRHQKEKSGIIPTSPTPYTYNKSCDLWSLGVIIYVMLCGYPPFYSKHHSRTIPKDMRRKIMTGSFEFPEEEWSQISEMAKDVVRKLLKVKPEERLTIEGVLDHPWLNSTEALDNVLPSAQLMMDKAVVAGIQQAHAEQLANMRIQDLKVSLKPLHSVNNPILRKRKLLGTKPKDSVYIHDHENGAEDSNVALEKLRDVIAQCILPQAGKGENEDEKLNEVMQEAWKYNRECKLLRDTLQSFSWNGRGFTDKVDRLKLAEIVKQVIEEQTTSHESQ
The experiment in a line: Eurofins in vitro kinase activity assay. The format is biochemical. The method, then: (§1) Using the Eurofins™ platform, a kinase activity assay was performed to identify human kinases inhibited by compound 1. To determine the effects of the compound on kinase activity, varying concentrations of compound 1 (1, 10 and 100 μM) were used with one technical replicate in a standard in vitro kinase activation assay.
(§2) This platform was used to determine the effects of compound 1 on the activity of 113 unique human kinases. Thresholds for kinase activity of interest was set at less than or equal to 60% […] (i.e., for antagonists) or enhanced activity at or above 140% (i.e., for agonists). Further, the validity of the results were confirmed by the occurrence of a dose-dependent response.

Test [2] concerns the target T2, ATR/ATRIP(h) (Homo sapiens, UniProt Q13535).
T2 construct: purchased Eurofins
The experiment in a line: Eurofins in vitro kinase activity assay. The note with it: read-out: ATR/ATRIP(h) kinase activity (human kinase inhibition data). The class given is biochemical. How it is done: as §1, §2

T2 sequence (Q13535 whole entry): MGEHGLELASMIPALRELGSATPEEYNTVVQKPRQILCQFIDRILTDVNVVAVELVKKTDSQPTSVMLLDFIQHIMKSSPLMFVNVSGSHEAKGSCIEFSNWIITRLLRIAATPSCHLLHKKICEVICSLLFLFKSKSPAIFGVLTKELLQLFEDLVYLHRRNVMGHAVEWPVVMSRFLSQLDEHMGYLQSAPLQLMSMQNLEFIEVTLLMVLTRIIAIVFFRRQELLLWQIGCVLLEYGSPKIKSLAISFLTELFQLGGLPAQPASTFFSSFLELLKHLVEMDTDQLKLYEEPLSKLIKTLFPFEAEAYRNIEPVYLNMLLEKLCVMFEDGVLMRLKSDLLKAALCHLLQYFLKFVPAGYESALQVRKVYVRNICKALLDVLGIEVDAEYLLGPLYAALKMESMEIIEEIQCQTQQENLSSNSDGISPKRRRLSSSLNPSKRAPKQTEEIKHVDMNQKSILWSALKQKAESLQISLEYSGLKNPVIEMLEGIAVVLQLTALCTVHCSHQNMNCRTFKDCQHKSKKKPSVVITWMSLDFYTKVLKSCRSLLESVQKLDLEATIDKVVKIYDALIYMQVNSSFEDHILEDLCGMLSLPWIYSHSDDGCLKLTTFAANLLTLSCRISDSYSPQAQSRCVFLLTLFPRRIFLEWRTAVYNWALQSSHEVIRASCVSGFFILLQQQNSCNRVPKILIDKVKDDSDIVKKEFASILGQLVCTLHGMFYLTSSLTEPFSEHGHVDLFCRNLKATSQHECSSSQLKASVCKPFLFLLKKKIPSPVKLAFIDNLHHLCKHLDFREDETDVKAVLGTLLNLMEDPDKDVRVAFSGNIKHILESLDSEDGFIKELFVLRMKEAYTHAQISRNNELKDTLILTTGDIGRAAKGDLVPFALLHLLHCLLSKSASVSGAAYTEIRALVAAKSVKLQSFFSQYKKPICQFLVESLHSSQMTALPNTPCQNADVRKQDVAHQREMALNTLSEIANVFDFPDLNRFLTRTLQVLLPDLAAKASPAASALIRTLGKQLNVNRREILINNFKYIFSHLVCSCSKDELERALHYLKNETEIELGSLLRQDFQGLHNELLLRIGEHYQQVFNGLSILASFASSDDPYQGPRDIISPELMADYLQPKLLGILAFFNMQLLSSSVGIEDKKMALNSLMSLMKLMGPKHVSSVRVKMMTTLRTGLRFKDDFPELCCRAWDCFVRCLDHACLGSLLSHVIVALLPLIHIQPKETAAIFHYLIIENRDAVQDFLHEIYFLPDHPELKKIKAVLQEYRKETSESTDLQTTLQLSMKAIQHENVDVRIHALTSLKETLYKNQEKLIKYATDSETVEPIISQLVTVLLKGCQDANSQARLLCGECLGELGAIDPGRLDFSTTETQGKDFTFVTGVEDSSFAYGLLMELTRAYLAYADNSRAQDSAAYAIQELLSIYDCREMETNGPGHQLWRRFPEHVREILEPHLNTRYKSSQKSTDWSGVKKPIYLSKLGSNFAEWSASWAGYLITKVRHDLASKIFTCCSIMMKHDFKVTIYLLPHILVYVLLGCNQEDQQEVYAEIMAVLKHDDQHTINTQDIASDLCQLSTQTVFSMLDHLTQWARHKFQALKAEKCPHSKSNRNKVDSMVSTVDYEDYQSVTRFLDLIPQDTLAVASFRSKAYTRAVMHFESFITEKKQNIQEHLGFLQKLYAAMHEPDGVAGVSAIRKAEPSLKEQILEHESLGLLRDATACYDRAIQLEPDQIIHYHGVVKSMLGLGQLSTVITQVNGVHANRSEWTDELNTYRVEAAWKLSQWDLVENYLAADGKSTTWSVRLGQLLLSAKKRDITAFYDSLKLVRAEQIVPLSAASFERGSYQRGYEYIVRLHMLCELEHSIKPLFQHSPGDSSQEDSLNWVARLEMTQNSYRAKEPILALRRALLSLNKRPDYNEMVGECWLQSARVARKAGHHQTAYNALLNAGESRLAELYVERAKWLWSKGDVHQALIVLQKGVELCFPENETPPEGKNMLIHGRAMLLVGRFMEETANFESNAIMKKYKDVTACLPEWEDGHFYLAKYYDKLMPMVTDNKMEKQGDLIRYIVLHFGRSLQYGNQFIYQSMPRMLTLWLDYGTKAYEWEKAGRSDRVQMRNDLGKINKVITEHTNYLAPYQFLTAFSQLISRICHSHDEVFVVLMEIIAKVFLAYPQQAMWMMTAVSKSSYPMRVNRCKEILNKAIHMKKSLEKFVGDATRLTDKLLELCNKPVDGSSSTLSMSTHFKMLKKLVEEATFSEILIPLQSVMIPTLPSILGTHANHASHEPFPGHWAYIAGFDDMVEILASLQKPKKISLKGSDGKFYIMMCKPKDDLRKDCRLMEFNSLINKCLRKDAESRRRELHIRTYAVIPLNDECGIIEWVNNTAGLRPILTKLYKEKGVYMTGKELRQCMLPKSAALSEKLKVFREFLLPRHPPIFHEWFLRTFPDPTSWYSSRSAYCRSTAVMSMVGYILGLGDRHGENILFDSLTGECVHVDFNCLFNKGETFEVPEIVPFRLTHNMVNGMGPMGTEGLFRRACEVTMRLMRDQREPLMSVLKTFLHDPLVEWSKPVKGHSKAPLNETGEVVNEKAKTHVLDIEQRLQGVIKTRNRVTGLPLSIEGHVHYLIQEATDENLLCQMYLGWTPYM
T2 sequence (Q8WXE1 whole entry partner): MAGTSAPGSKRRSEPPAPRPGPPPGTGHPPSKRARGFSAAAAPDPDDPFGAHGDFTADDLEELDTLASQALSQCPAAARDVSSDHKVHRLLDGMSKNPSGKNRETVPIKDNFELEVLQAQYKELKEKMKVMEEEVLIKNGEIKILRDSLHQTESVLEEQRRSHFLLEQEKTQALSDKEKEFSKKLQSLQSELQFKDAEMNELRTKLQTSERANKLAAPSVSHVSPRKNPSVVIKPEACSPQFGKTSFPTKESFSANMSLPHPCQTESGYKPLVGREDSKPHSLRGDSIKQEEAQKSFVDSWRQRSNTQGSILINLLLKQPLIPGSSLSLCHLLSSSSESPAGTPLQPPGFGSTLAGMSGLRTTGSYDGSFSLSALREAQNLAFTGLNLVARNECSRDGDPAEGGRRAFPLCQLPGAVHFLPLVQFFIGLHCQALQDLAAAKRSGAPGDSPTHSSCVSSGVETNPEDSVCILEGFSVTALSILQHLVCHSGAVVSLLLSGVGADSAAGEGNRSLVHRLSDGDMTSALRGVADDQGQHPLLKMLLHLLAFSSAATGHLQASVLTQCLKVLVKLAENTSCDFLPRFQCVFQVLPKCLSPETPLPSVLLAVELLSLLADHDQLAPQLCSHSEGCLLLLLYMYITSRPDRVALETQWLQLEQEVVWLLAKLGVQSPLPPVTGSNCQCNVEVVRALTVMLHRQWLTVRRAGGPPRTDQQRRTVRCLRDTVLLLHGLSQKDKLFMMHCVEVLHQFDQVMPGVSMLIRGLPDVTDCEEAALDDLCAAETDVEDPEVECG

As to `O=C(CCn1ncc2ccccc21)N1CCOC(c2ccc(Cc3ccc(F)cc3)cn2)C1` (stereo not shown) [compound 1, 1-(2-(5-(4-fluorobenzyl)pyridin-2-yl)morpholino)-3-(1H-indazol-1-yl)propan-1-one], the “PRAK/MAPKAPK5 inhibition, dose dependence” value in test [1] (1, 10 and 100 μM) was “inhibited in a dose-dependent manner”. Besides, the activity at 1 µM in test [1] (compound at 1 μM, read-out: PRAK(h)/MAPKAPK5 kinase activity (human kinase inhibition data)) is 115%; in test [2] (compound at 1 μM) it was 101%. Besides, the activity at 10 µM in test [1] (compound at 10 μM, read-out: PRAK(h)/MAPKAPK5 kinase activity (human kinase inhibition data)) was found to be 92%; in test [2] (compound at 10 μM), 91%. Also, the activity at 100 µM in test [1] (compound at 100 μM, read-out: PRAK(h)/MAPKAPK5 kinase activity (human kinase inhibition data)) turned out to be 40%; in test [2] (compound at 100 μM), 65%.
